Literature values as cited in patent US9669048B2, “Stable pharmaceutical composition of 5-aza-2′-deoxycitidine” (Fresenius Kabi Oncology Limited, priority 2012, dated 2017).

Settings: reconstituted/diluted solution

Stability in aqueous media: highly unstable
Compound: Nc1ncn([C@H]2CC(O)[C@@H](CO)O2)c(=O)n1 (stereo partly shown) [Decitabine, 5-aza-2′-deoxycitidine]
